According to US5340565A, “Tumor or cancer cell killing therapy and agents useful therefor” (priority 1992, dated 1994):
Read-outs that look alike come from different tables or passages of the source.

Columns and labels:
[1] = system: ADPRT (adenosine diphosphate ribosyl transferase); experiment: ADPRT activity in permeabilized HML after 30 min exposure; type: cell-based, human; conditions: average of duplicates
Experimental: The data were recorded as cpm TCA precipitable [^3 H]NAD per 1×10^6 cells.

[2] = Cytotoxicity by trypan blue exclusion in HML; type: cell-based; conditions: human, mononuclear leukocytes
ADPRT = conditions: Sims et al, Biochem. 21:1813-1821, 1982; cited from earlier work
[3] = system: human squamous cell carcinoma (SCC) (ABII) of the head and neck xeno-grafted to nude mice; experiment: Growth of human SCC (ABII) xenografted to nude mice, CDDP with or without metoclopramide; type: in vivo; conditions: for Reduction in AUC (area under plotted tumor growth curves), agent given alone: schedules A and B, metoclopramide 2.0 mg/kg i.p. (x1 or x3), CDDP 7.5 mg/kg i.p.
Experimental: Cisplatin (cis-diamine-dichloroplatinum=CDDP) is a heavy metal complex with alkylating properties which allow bifunctional linking to DNA. CDDP has been used successfully as a chemotherapeutic agent to treat several types of human cancers. Since CDDP treatment regimes induce nausea and vomiting, metoclopramide is often co-administered therewith as an antiemetic drug.
Two administration schedules were tested: (A) metoclopramide (2.0 mg/kg i.p.) one hour before CDDP (7.5 mg/kg i.p.) and (B) metoclopramide (2.0 mg/kg×3 treatment times) given separately concomitant to CDDP (7.5 mg/kg i.p.) and 24 hr and 48 hr after CDDP administration. In both schedules the combined treatment was compared with CDDP alone, metoclopramide alone and with physiologic saline treated tumor bearing animals (controls). The tumor line used was a poorly difterentiated human SSC originating from the nose. There were n=10 animals in each group. Tumor diameters and animal weight were recorded and plotted twice weekly for 21 days. Treatment efficacies were compared using the area under the plotted growth curves (AUC).

calmodulin = conditions: cited from earlier work
[4] = system: adenocarcinoma transplanted in C3H mice; conditions: dose of 10 mg/kg, Kjellen and Pero 1987 abstract; cited from earlier work
[5] = system: Human mononuclear leukocytes (HML); experiment: Cytotoxicity by trypan blue exclusion in HML; type: cell-based; conditions: for % Dead Cells 30 min: 0.5 h
[6] = 100 μM agent, 30 min incubation, HML, read-out: % Dead Cells 30 min
[7] = 500 μM agent, 30 min incubation, HML, read-out: % Dead Cells 30 min

CN(C)CCCN1c2ccccc2Sc2ccc(Cl)cc21 [Chlorpromazine, 2chloro-N,N-dimethyl-10H-phenothiazine-10-propanamine]
ADPRT Activity ([1]; 100 μM agent): 1508 cpm TCA precipitable [3H]NAD p | ADPRT Activity ([1]; 500 μM agent): 890 cpm TCA precipitable [3H]NAD p | cytotoxicity at 0.5 h, 100 µM [2, 6]: 50% | cytotoxicity at 0.5 h, 500 µM [2, 7]: 100%

pyrazine 1,2-dicarboxylic acid
Inhibition of ADPRT (ADPRT): failed to inhibit ADPRT

Nc1ccc(C(=O)O)cn1 [6-amino nicotinic acid]
Inhibition of ADPRT (ADPRT): failed to inhibit ADPRT

N.N.[Cl][Pt][Cl] [CDDP, cis-diamine-dichloroplatinum]
AUC as % of control tumor growth ([3]; schedule B: CDDP 7.5 mg/kg i.p., metoclopramide 2.0 mg/kg x3 (concomitant, 24 hr, 48 hr), 21 days): 72 % of control tumor growth | Reduction in AUC (area under plotted tumor growth curves), agent given alone ([3]; 21 days): significant reduction of AUC-values

NCCCCCCNS(=O)(=O)c1cccc2c(Cl)cccc12 [W-7, N(6-aminohexyl)-5-chloro-1-naphthalenesulfonamide]
ADPRT Activity ([1]; 50 μM agent): 750 cpm TCA precipitable [3H]NAD p | ADPRT Activity ([1]; 100 μM agent): 910 cpm TCA precipitable [3H]NAD p | ADPRT Activity ([1]; 200 μM agent): 1480 cpm TCA precipitable [3H]NAD p | cytotoxicity at 0.5 h, 50 µM [2]: 10% | cytotoxicity at 0.5 h, 100 µM [2]: 25% | cytotoxicity at 0.5 h, 200 µM [2]: 90%

NCCCCCCNS(=O)(=O)c1cccc2ccccc12 [W-5, N(6-aminohexyl)-naphthalenesulfonamide]
ADPRT Activity ([1]; 50 μM agent): 395 cpm TCA precipitable [3H]NAD p | ADPRT Activity ([1]; 100 μM agent): 415 cpm TCA precipitable [3H]NAD p | ADPRT Activity ([1]; 200 μM agent): 425 cpm TCA precipitable [3H]NAD p | Calmodulin antagonist activity at fixed concentration (calmodulin; 50 μM): inactive | IC50 (calmodulin; Hidaka et al, Proc. Natl. Acad. Sci. U.S.A. 78:4354-4357, 1981, read-out: IC50 dose as calmodulin antagonist): ~250 µM | cytotoxicity at 0.5 h, 50 µM ([2]; 50 μM agent, 30 min incubation, HML, read-out: % Dead Cells 30 min): < 5% | cytotoxicity at 0.5 h, 100 µM [2, 6]: < 5% | cytotoxicity at 0.5 h, 200 µM ([2]; 200 μM agent, 30 min incubation, HML, read-out: % Dead Cells 30 min): 7%

NC(=O)c1ccccc1 [benzamide]
Radiosensitization of adenocarcinoma [4]: totally ineffective

CC(CN1CCN(CCOCCO)CC1)CN1c2ccccc2Sc2ccccc21 (centres unmarked) [Dixyrazine]
ADPRT Activity ([1]; 100 μM agent): 385 cpm TCA precipitable [3H]NAD p | ADPRT Activity ([1]; 500 μM agent): 850 cpm TCA precipitable [3H]NAD p | cytotoxicity at 0.5 h, 100 µM [2, 6]: 13% | cytotoxicity at 18 h, 100 µM ([2]; 100 μM agent, 18 hr incubation, HML, read-out: % Dead Cells 18 hr): 78% | cytotoxicity at 0.5 h, 500 µM [2, 7]: 79% | cytotoxicity at 18 h, 500 µM ([2]; 500 μM agent, 18 hr incubation, HML, read-out: % Dead Cells 18 hr): 100%

Nc1cccc(C(=O)O)c1 [3-aminobenzoic acid]
Inhibition of ADPRT (ADPRT): failed to inhibit ADPRT

O=C(O)c1ccncc1 [isonicotinic acid]
Inhibition of ADPRT (ADPRT): failed to inhibit ADPRT

NC(=O)c1cccnc1 [Nicotinamide]
Radiosensitization of adenocarcinoma [4]: will radiosensitize

O=C(O)c1ccccc1 [benzoic acid]
Inhibition of ADPRT (ADPRT): failed to inhibit ADPRT

CC(CN(C)C)CN1c2ccccc2Sc2ccccc21 (centres unmarked) [Trimeprazine]
ADPRT Activity ([1]; 100 μM agent): 639 cpm TCA precipitable [3H]NAD p | ADPRT Activity ([1]; 500 μM agent): 571 cpm TCA precipitable [3H]NAD p | cytotoxicity at 0.5 h, 500 µM [2]: 95% | cytotoxicity at 0.5 h, 100 µM [2, 6]: 7%

CCN(CC)CCNC(=O)c1cc(Cl)c(N)cc1OC [Metoclopramide, 4-amino-5-chloro-N-[(2-diethylamino)ethyl]-2-methoxy-benzamide]
ADPRT Activity ([1]; 500 μM agent): 530 cpm TCA precipitable [3H]NAD p | ADPRT Activity ([1]; 2000 μM agent): 703 cpm TCA precipitable [3H]NAD p | ADPRT Activity ([1]; 5000 μM agent): 950 cpm TCA precipitable [3H]NAD p | ADPRT Activity ([1]; 10000 μM agent): 870 cpm TCA precipitable [3H]NAD p | Effect of adding metoclopramide to CDDP on AUC ([3]; schedule A: metoclopramide 2.0 mg/kg i.p. one hour before CDDP 7.5 mg/kg i.p.): did not give any additive effect | Effect of adding metoclopramide to CDDP on AUC ([3]; schedule B: metoclopramide 2.0 mg/kg x3, concomitant to CDDP 7.5 mg/kg i.p. and 24 hr and 48 hr after): potentiated the effect of CDDP | Reduction in AUC (area under plotted tumor growth curves), agent given alone ([3]; 21 days): In neither schedule A nor B did metoclopramide alone induce any significant reduction in AUC | cytotoxicity at 0.5 h, 500 µM [2]: 7% | cytotoxicity at 0.5 h, 2000 µM [2]: 13% | cytotoxicity at 0.5 h, 5000 µM [2]: 10% | cytotoxicity at 0.5 h, 10000 µM [2]: 22% | cytotoxicity at 18 h, 500 µM [2]: 8% | cytotoxicity at 18 h, 2000 µM [2]: 29% | cytotoxicity at 18 h, 5000 µM [2]: 58% | cytotoxicity at 18 h, 10000 µM [2]: 88%

Cc1ccc(C2(O)CCN(CCCC(=O)c3ccc(F)cc3)CC2)cc1 [Moperone, 1(4-fluorophenyl)-4-[4-hydroxy-4(4-methylphenyl)1-piperidinyl]-1-butanone]
ADPRT Activity ([1]; 100 μM agent): 529 cpm TCA precipitable [3H]NAD p | ADPRT Activity ([1]; 500 μM agent): 712 cpm TCA precipitable [3H]NAD p | ADPRT Activity ([1]; 1000 μM agent): 1112 cpm TCA precipitable [3H]NAD p | cytotoxicity at 0.5 h, 100 µM [2, 6]: 5% | cytotoxicity at 0.5 h, 500 µM [2, 7]: 7% | cytotoxicity at 0.5 h, 1000 µM ([2]; 1000 μM agent, 30 min incubation, HML, read-out: % Dead Cells 30 min): 26% | cytotoxicity at 18 h, 1000 µM ([2]; 1000 μM agent, 18 hr incubation, HML, read-out: % Dead Cells 18 hr): 100%

OO [H2 O2]
ADPRT Activity ([1]; 100 μM agent): 1800 cpm TCA precipitable [3H]NAD p | ADPRT Activity ([1]; 300 μM agent): 2700 cpm TCA precipitable [3H]NAD p | ADPRT Activity ([1]; 500 μM agent): 2900 cpm TCA precipitable [3H]NAD p | ADPRT Activity ([1]; 1000 μM agent): 3000 cpm TCA precipitable [3H]NAD p | % Dead Cells 30 min ([5]; 100 µM): 5% | % Dead Cells 30 min ([5]; 300 µM): 5% | % Dead Cells 30 min ([5]; 500 µM): 7% | % Dead Cells 30 min ([5]; 1000 µM): 12% | % Dead Cells 18 hr ([5]; 100 µM): 40% | % Dead Cells 18 hr ([5]; 300 µM): 41% | % Dead Cells 18 hr ([5]; 500 µM): 55% | % Dead Cells 18 hr ([5]; 1000 µM): 71%
